Here are results for 101 compounds from PubChem BioAssay AID2384 (Southern Research Specialized Biocontainment Screening …, 2010).

pIC50: −log10 of the molar value.

The experiment deals with S. typhi GFP reporter counter-screen, fluorescence, 4 h. Kind of experiment: inhibitors in S. typhi counter-screen strain, dose response, counter-screen for PhoP regulon inhibitor project, fluorescence, 4 h (AID 2384).
By pIC50 is commonly meant the negative decadic logarithm of the IC50, by convention in mol/L. In the case of `CC1(C)N=C(N)N=C(N)N1c1ccc(Oc2ccc(Cl)cc2)c(Cl)c1`, the pIC50 was 4.44. `CO[C@@]1(NC(=O)C2SC(=C(C(N)=O)C(=O)O)S2)C(=O)N2C(C(=O)O)=C(CSc3nnnn3C)CS[C@@H]21` (stereo partly specified): the negative logarithm of the IC50 (pIC50) was 4.99.

With `CN1CCN(c2ccc(NC(=O)c3ccc(-c4ccc(Br)cc4)o3)cc2)CC1`, the pIC50 was 4.71. With `CCN(CC)c1ccc(CNc2nc3ccccc3n2C)cc1` the figure was 4.09. In the case of `CCN(CCC(=O)Nc1ccc(Br)c(C)c1)Cc1ccccc1` it was 4.42; in that of `CCn1cc(C(=O)O)c(=O)c2cc(F)c(N3CCN(C(=S)NC(=O)c4ccccc4)CC3)cc21`, 4.11; in that of `OC(CN1CCCCC1)Cn1c2ccccc2c2cc(Br)ccc21` (stereo unspecified), 4.42. In the case of `CCCCCCCSc1cc(OC)c(CCNC)cc1OC` it was 4.48.

Regarding `OCCCNc1c2ccccc2nc2ccccc12`, the pIC50 was 3.96. In the case of `CCCCCCCCCCn1c2c(c(=N)c3c1CCC3)CCC2` it was 5.01.

As for `CN1CCN(/N=C/c2c3ccccc3c(Cl)c3ccccc23)CC1`, the pIC50 was 4.13.

With `O=[N+]([O-])c1cc(F)c2cccnc2c1O`, the pIC50 was 5.13.

As for `Clc1ccc(OCCCN2CCCC2)cc1Cl`, the pIC50 is 4.55.

With `Clc1ccc(C(c2ccccc2)N2CCNCC2)cc1` (stereo unspecified), the pIC50 was 4.01.

In the case of `Cc1ccc(-c2c[n+](CC(=O)Nc3nc(-c4ccccc4)cs3)c3n2CCC3)cc1`, the pIC50 is 4.67. With `Cc1cc(N=Nc2ccc(C)c(N=Nc3cc(C)c(N)cc3N)c2)c(N)cc1N` the figure was 4.24; with `CC1CCC(C(C)C)C(OC(=O)Cn2c(-c3ccc(Cl)cc3)[n+](C)c3ccccc32)C1` (stereo unspecified), 4.42; with `CC(Nc1nc(N2CCCCC2)nc2ccccc12)c1ccccc1` (stereo unspecified), 3.87. With `Cc1cc(N/N=C/c2ccc(O)cc2)c2cccc(C)c2n1` the figure was 4.32; with `O=[N+]([O-])c1cc(O)c2ncccc2c1`, 4.80; with `CCSc1ccc2c(c1)N(CCCN1CCN(C)CC1)c1ccccc1S2`, 4.15. In the case of `NC(N)=N/N=C/c1ccc(OCc2ccc(Cl)cc2)cc1` it was 4.57; in that of `CCN1CCCC1Cn1cnc2c([nH]c3ccc(Cl)cc32)c1=O` (stereo unspecified), 3.93; in that of `CN1CCN(C2Cc3cc(F)ccc3Sc3ccc(Cl)cc32)CC1` (stereo unspecified), 4.46.

With `CCc1ccc(Nc2n[n+](-c3ccccc3)c(-c3c(Cl)cccc3Cl)s2)cc1`, the pIC50 is 4.38. In the case of `CN(C)C1C(=O)C(C(N)=O)=C(O)C2(O)C(=O)C3=C(O)c4c(O)cccc4C(C)(O)C3C(O)C12` (stereo unspecified) it was 6.08; in that of `Cc1cc(C)n(/N=C/c2cc([N+](=O)[O-])ccc2O)c(=O)c1`, 4.40; in that of `Cc1cc(C2N=C(N)Nc3nc4ccccc4n32)c(C)n1-c1ccccc1Cl` (stereo unspecified), 4.48. With `COc1cccc(/C=N/NC(=O)c2ccoc2C)c1O` the figure was 3.86; with `Cc1cc(C)c2sc(N(CCCN(C)C)C(=O)COc3ccc(Cl)cc3)nc2c1`, 4.46.

With `O=C(Nc1ccccc1)c1c(O)[nH]c(=S)[nH]c1=O`, the pIC50 is 4.07. In the case of `C=CCc1cc(Cl)ccc1OCCCNCCO` it was 4.03. In the case of `O=C(Nc1cccc(C2=NCCN2)c1)Nc1cccc(C2=NCCN2)c1` it was 4.35; in that of `N=c1n(Cc2ccc(Cl)cc2)c2ccccc2n1CC(O)COc1ccccc1` (stereo unspecified), 4.44. In the case of `C/C(=N\NC(=O)c1ccc(CN2CCc3ccccc3C2)cc1)c1ccccc1O` it was 4.29; in that of `CNCCC=C1c2ccccc2CCc2ccccc21`, 3.93; in that of `CCN(CC(=O)NC(C)(C)C)C(=O)COc1c(Cl)cc(Cl)c2ccc(C)nc12`, 4.72. As to `CN1CCN(C(c2ccc(C(F)(F)F)cc2)c2ccc3cccnc3c2O)CC1` (stereo unspecified), the pIC50 was 4.66.

As for `CCN1CCN(C(=O)Nc2ccc(Cc3ccc(NC(=O)N4CCN(CC)CC4)cc3)cc2)CC1`, the negative-log IC50 (pIC50) was 4.01. With `CCCCCCCCCCOC(=O)Cn1c(COc2ccc(Cl)cc2)[n+](C)c2ccccc21` the figure was 5.00; with `O=C(N/N=C/c1ccc([N+](=O)[O-])s1)C(O)c1ccccc1` (stereo unspecified), 4.49. With `OCCN1CCN(CCCN2c3ccccc3Sc3ccc(Cl)cc32)CC1`, the negative logarithm of the IC50 (pIC50) is 4.13. With `Cn1c(CN2CCCC2)nc2cc(NC(=O)COc3ccc(Cl)cc3)ccc21` the figure was 3.89; with `COC(=O)C1C(O)C(C)C(O)C(C)(O)/C=C\C=C(/C)C(=O)Nc2c(C)c(OC(C)=O)c3c(c2O)C(=O)C(C)=C2OCOC(=C23)/C(C)=C/C(C)(O)C(O)C(C)C1O` (stereo unspecified), 4.62; with `CCN(CC)C(=S)SSC(=S)N(CC)CC`, 4.13. With `CC(C)(C)c1ccc(NC(=O)COC(=O)c2ccc([N+](=O)[O-])s2)cc1` the figure was 4.82; with `O=[N+]([O-])c1cccc2c(N3CCCC3)ccnc12`, 4.48; with `Clc1cccc(CN2CCc3c([nH]c4ccccc34)C2)c1Cl`, 3.87. For the compound `COc1cccc(-c2nnc(NC(=O)c3ccc(Cl)s3)o2)c1`, the pIC50 was 4.34. For the compound `NC1CCN(c2nc3c(cc2F)c(=O)c(C(=O)O)cn3-c2ccc(F)cc2F)C1` (stereo unspecified), the pIC50 was 5.82.

For `CCCC(=O)NC(c1ccco1)c1cc([N+](=O)[O-])c2cccnc2c1O` (stereo unspecified), the pIC50 was 4.60.

Consider `COc1ccc2c(c1OC)C(=O)N(c1ccc(C)cc1)C2=O`, for which the pIC50 was 3.98. In the case of `CCCNC1=C(C)C(=O)C2=C(C1=O)C(COC(N)=O)[C@]1(OC)C3NC3CN21` (stereo partly specified) it was 4.67; in that of `c1ccc2c(NCCc3c[nH]c4ccccc34)c3ccccc3nc2c1`, 4.43. In the case of `CC[N+](C)(CC)CCC[n+]1c(-c2ccccc2)c2cc(N)ccc2c2ccc(N)cc21` it was 3.89; in that of `COc1ccc(Cc2nnc(N/N=C/c3ccc(O)cc3)[nH]c2=O)cc1OC`, 4.08. For the compound `S=C(Nc1cc(Cl)cc(Cl)c1)NC1CCN(Cc2ccccc2)CC1`, the pIC50 is 4.09.

As to `Nc1nnc(-c2cccc(Cl)c2Cl)c(N)n1`, the negative logarithm of the IC50 (pIC50) is 4.59.

On to `OCCCCNCc1ccc(OCc2ccccc2Cl)cc1`, for which the pIC50 is 4.07. In the case of `CCn1cc(C(=O)O)c(=O)c2cc(F)c(N3CCN(C(=S)NC(=O)c4cccc(C)c4)CC3)cc21` it was 4.42; in that of `CC(C)Oc1ccc(Cc2cnc(N)nc2N)cc1`, 4.48. With `O=[N+]([O-])c1ccc(O)c2ncccc12` the figure was 6.10; with `O=C(NC1CCCC1)c1ccc(Br)s1`, 4.31. In the case of `O=S1(=O)CC=C(CSC(=S)NC2CCS(=O)(=O)C2)C1` (stereo unspecified) it was 4.41; in that of `O=C(O)/C(=C\C(=O)c1ccccc1)Nc1ccccc1`, 3.99. For the compound `C/C(=N\NC(=O)c1ccc(Cl)cc1)c1ccccn1`, the pIC50 was 4.54. In the case of `CCCOc1ccc(C2=CSC3=NCCN23)cc1Cl` it was 4.12; in that of `Nc1nnnn1/N=C/c1cc([N+](=O)[O-])ccc1O`, 4.28; in that of `CN1CCN(c2nc(Nc3ccc(F)cc3)nc(Nc3ccc(F)cc3)n2)CC1`, 4.06. Regarding `CC1CCc2cc(F)cc3c(=O)c(C(=O)O)cn1c23` (stereo unspecified), the pIC50 was 4.81. In the case of `Fc1cccc(Nc2c3c(nc4ccccc24)CCC3)c1` it was 4.12; in that of `Cc1ccc(C(c2cc(Cl)c3cccnc3c2O)N2CCN(C)CC2)cc1` (stereo unspecified), 4.52. In the case of `Cc1ccc(S(=O)(=O)NNc2ccccc2)cc1` it was 4.05. In the case of `Nc1cc2c3c(cccc3c1)C(=O)N(CCN1CCCC1)C2=O` it was 3.89; in that of `CSc1cccc(NC(=O)/C=C/c2ccccc2)c1`, 4.14; in that of `CN(C)c1ccc(/C=C/c2ccc3ccccc3[n+]2C)cc1`, 4.72. As to `Cc1nc2c(=O)n(C)c(=O)nc-2n(C)n1`, the pIC50 is 5.63. For `CC(=O)NNC(=S)NC(=O)c1ccccc1`, the pIC50 is 4.74. With `c1ccc(CCN2CN(CCCN3CCOCC3)c3nc4ccccc4n3C2)cc1` the figure was 3.89; with `CCN1/C(=C/C=C/C=C/c2sc3ccccc3[n+]2CC)Sc2ccccc21`, 5.01. In the case of `O=c1cc(-c2ccc(O)cc2)oc2c(O)c(O)c(O)c(O)c12`, the pIC50 is 4.45. With `COc1ccc(/C=N/Nc2cc(C)nc3c(C)cccc23)cc1`, the pIC50 was 4.39. Take `Cc1ccc(NC(=O)COc2ccccc2CNC(C)(C)CC(C)(C)C)cc1`: the pIC50 was 4.08. With `O=[N+]([O-])c1cc(CN2CCN(c3cccc(C(F)(F)F)c3)CC2)c2cccnc2c1O` the figure was 4.64; with `OCCN1CCN(Cc2cc(Cl)c3cccnc3c2O)CC1`, 4.25; with `C#CCOCCOCCOCCNc1nc(N2CCN(C(=O)CCCCCCCCCCNC(=O)[C@H](CO)n3cc(CCCCCN)nn3)CC2)nc(N2CCN(C(=O)CCCCCCCCCCNC(=O)[C@H](CCCN=C(N)N)n3cc(C[C@@H](C)CC)nn3)CC2)n1`, 4.71.

In the case of `CC(C)(C)c1ccc(OCCCCCCN2CCNCC2)cc1`, the pIC50 was 4.31. With `C=CC1=C(C(=O)O)N2C(=O)[C@@H](NC(=O)/C(=N\O)c3csc(N)n3)[C@H]2SC1` (stereo in doubt) the figure was 4.81; with `Oc1ccc(/C=N/N=C(c2ccccc2)c2ccccc2)c(O)c1O`, 4.47; with `O=C(Cn1cncn1)N/N=C/c1ccccc1O`, 3.83. With `O=[N+]([O-])c1ccc(N2CCNCC2)cc1NCc1cccnc1` the figure was 4.13; with `N#C/C(=C(/O)c1ccco1)c1nc2ccccc2s1`, 4.24; with `CC(C)(c1ccccc1)c1ccc(OCCCNCCO)cc1`, 4.54. In the case of `CSc1nc2ccc(Cl)cc2[nH]1` it was 4.13. Consider `Cc1cc2oc(=O)cc(CN3CCN(C/C=C/c4ccccc4)CC3)c2cc1O`, for which the pIC50 was 4.03. With `C[C@H]1COc2c(C3(N)CC3)c(F)cc3c(=O)c(C(=O)O)cn1c23` the figure was 6.05; with `CCCCCOc1ccc(C)cc1CN(CCCl)CCCl`, 4.15. In the case of `C(=N\Nc1ccccn1)/c1cccnc1` it was 4.52; in that of `CCCCCCCCCCCCOC(=O)C[N+](C)(C)C`, 4.70. With `CN1CCN(C(=O)CSc2ccc(Cl)cc2)CC1` the figure was 3.95. Consider `Cc1cc([N+](=O)[O-])cc(/C=N/n2c(C)nc3ccccc3c2=O)c1O`, for which the pIC50 is 4.11.
